Earlier results, collected in paper PMC5132270 (Cancer Science, 2016).

Columns and labels:
[1] = system: models of crizotinib resistance; conditions: preclinical studies

SMILES	antitumor effect [1]	median PFS (ALK+ NSCLC)
CCc1cc2c(cc1N1CCC(N3CCOCC3)CC1)C(C)(C)c1[nH]c3cc(C#N)ccc3c1C2=O [alectinib]	tumor size reduction	
Cc1cc(Nc2ncc(Cl)c(Nc3ccccc3S(=O)(=O)C(C)C)n2)c(OC(C)C)cc1C1CCNCC1 [ceritinib]		7.0 months
